Test results published in patent publication US20090156646A1, “PYRIDYLPHENOL COMPOUND AND USE THEREOF” (TAKEDA PHARMACEUTICAL COMPANY LIMITED, priority 2005, published 2009).
pIC50: −log10 of the molar value. Counter-ions that a name gives are not always drawn.

How the values were obtained:
[1] = biological target: T1, human metastin receptor hOT7T175 (Homo sapiens, UniProt Q969F8, L364H); test: binding inhibiting activity: 125I-metastin (40-54) binding to cell membrane fraction of h175 KB34 cells; settings: room temperature 60 minutes, read-out: binding inhibiting activity, represented by the IC50 value
T1 construct: encoding the entire length of human metastin receptor hOT7T175; expressed in transfected cells; host or cells: CHO/dhFr- cells (ATCC #CRL-9096) stably transfected with pAKKO-hOT7T175; clone h175-16 was used as whole cells for FLIPR
Protocol: cDNA fragments (SEQ ID NO: 2) encoding the entire length of human metastin receptor hOT7T175 were incorporated into expression vector pAKKO1.11H to produce animal cell expression plasmids pAKKO-hOT7T175. CHO/dhFr-cells (ATCC, #CRL-9096) were seeded onto 6 cm culture dishes (Becton Dickinson) at a density of 0.3×10^6 cells/dish, and cultured in the conditions of 48 hours, 37° C. and 5% CO2. 5 μg pAKKO-hOT7T175 plasmid DNA was transfected to the resultant cells by a known method (described in Example 3 of WO 00/24890) using the Cellphect Transfection Kit (Amersham, #27-9268-01). The DNA-transfected cells were cultured in the Dulbecco's modified Eagle medium (DMEM) (Sigma, #D6046) containing 10% dialyzed FBS (Biowest, #S180D), 1× Non-Essential Amino Acid (Invitrogen, #11140-050) and 50 μg/ml Gentamycin (Invitrogen, #15750-060; and cell strains stably expressing the plasmid genes were selected. The obtained 41 clones were treated with the FLIPR assay (in accordance with the method described in Example 3 of WO 00/24890), and the reactivity to the human metastin […] (Nos. 40 to 54 of the human metastin sequence; Peptide Institute, Inc., #4389-v) was evaluated. In the end, h175 KB34 cell strains were selected. By substantially the same method, h175-16 cell strains were also produced.
The h175 KB34 cells were cultured to be on the stage of 40-50% confluency using a cell factory (Nunc, #164327), and then cells were recovered in the following method.
First, the medium was disposed, and the cells were washed twice with 200 ml EDTA/PBS(−). Another 200 ml of EDTA/PBS(−) was added, and the cells were kept still for 20 minutes at room temperature until being peeled off. The cells were recovered into four 50 ml tubes (Becton Dickinson, #352070), and centrifuged (2,000 rpm, 10 min., 4° C.) by a reduced performance centrifuge (TOMY, RL-101). The supernatant was disposed, and the pellets in the four tubes were each suspended with 10 ml EDTA/PBS(−) and collected into one tube (Becton Dickinson, #352070). The pellet was further centrifuged (2,000 rpm, 10 min., 4° C.). The resultant pellet was suspended with 20 ml ice-cooled homogenizer buffer [10 mM NaHCO3, 2 mM EGTA, 0.2 mM magnesium acetate, 10 μg/ml Leupeptin (Peptide Institute, Inc., #4041), 10 μg/ml E-64 (Peptide Institute, Inc., # 4096), 100 μg/ml o-phenanthroline (Dojindo Laboratories), 90 μg/ml PMSF (Wako Pure Chemical Industries, Ltd.), 10 μg/ml Pepstatin A (Peptide Institute, Inc., #4397), pH7.3]. The cell suspension was homogenized 3 times, each for 30 seconds, using a Polytron homogenizer. The resultant homogenate was centrifuged (2,500 rpm, 10 min, 4° C.) using a high performance refrigerated centrifuge (Hitachi, Ltd., CR26H). The supernatant was recovered into a super-centrifuge tube, and super-centrifuged (30,000 rpm, 60 min, 4° C.) using a super-centrifuge (Hitachi, Ltd., SCP70H). 3 ml homogenizer buffer was added to the resultant pellet, and the pellet was suspended by pipetting. 3 ml glycerol (Wako Pure Chemical Industries, Ltd.) was added to the resultant suspension and diluted 2-folds. The resultant substance was used as a cell membrane fraction of the h175 KB34 cells. Each […] of the membrane fraction was put into a 1.5 ml tube (Eppendorf, #0030120.086), stored in a freezer (−30 C) so as not to be frozen, and used for a binding assay.
An assay buffer was prepared on the day of the test by adding, to each 100 ml of an assay basic buffer [20 mM Tris, 2.5 mM Magnesium Acetate, 2 mM EGTA, pH 7.4], 1 mg Leupeptin (Peptide Institute, Inc., 4041), 1 mg E-64 (Peptide Institute, Inc., 4096), 10 mg o-phenanthroline (Dojindo Laboratories), 9 mg PMSF (Wako Pure Chemical Industries, Ltd.) and 1 mg Pepstatin A (Peptide Institute, Inc., 4397). The prepared assay buffer was stored at 4° C. until being used. When the measurement was to be performed with no BSA, the above-described assay buffer was used. […]

T1 sequence (Q969F8 whole entry L364H): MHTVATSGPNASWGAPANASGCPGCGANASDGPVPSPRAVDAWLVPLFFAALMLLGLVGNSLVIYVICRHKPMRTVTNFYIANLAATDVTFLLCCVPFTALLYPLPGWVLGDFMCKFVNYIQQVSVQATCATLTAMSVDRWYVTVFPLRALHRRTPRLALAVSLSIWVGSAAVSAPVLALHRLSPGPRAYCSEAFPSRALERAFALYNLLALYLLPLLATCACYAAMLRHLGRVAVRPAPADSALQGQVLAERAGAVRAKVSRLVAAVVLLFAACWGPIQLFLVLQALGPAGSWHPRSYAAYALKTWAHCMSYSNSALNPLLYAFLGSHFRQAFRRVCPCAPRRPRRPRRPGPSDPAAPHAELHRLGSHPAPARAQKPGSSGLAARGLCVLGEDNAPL

| melting point [°C] | pIC50 [1] | Compound |
| --- | --- | --- |
| 158 to 160 | ≥ 5.00 | CC(=O)NCCNc1cccc(-c2cc(-c3ccc(F)cc3O)nc(NC(=O)c3ccco3)c2C#N)c1 [Example 307, N-[4-(3-{[2-(acetylamino)ethyl]amino}phenyl)-3-cyano-6-(4-fluoro-2-hydroxyphenyl)pyridin-2-yl]-2-furamide] |
| 222 to 226 | ≥ 5.00 | Cl.N#Cc1c(-c2cccc(C(=O)NCC3CCCCN3)c2)cc(-c2ccc(Cl)cc2O)nc1NC(=O)c1ccco1 (stereo not drawn) [Example 84, N-[6-(4-chloro-2-hydroxyphenyl)-3-cyano-4-(3-{[(piperidin-2-ylmethyl)amino]carbonyl}phenyl)pyridin-2-yl]-2-furamide hydrochloride] |
| 203 to 205 | ≥ 5.00 | Cl.N#Cc1c(-c2cccc(NC(=O)CN3CCCC3)c2)cc(-c2ccc(F)cc2O)nc1NC(=O)c1ccco1 [Example 259, N-(3-cyano-6-(4-fluoro-2-hydroxyphenyl)-4-{3-[(pyrrolidin-1-ylacetyl)amino]phenyl}pyridin-2-yl)-2-furamide hydrochloride] |
| 206 to 214 | ≥ 5.00 | CC(N)CC(=O)Nc1cccc(-c2cc(-c3ccc(Cl)cc3O)nc(NC(=O)c3ccco3)c2C#N)c1.Cl (stereo not drawn) [Example 238, N-[4-{3-[(3-aminobutanoyl)amino]phenyl}-6-(4-chloro-2-hydroxyphenyl)-3-cyanopyridin-2-yl]-2-furamide hydrochloride] |
| 224 to 225 | ≥ 5.00 | Cl.N#Cc1c(-c2cccc(NC(=O)[C@@H]3CCCC[C@@H]3N)c2)cc(-c2ccc(F)cc2O)nc1NC(=O)c1ccco1 (racemic) [Example 267, N-{4-[3-({[(1SR,2RS)-2-aminocyclohexyl]carbonyl}amino)phenyl]-3-cyano-6-(4-fluoro-2-hydroxyphenyl)pyridin-2-yl}-2-furamide hydrochloride] |
| 171 to 175 | ≥ 5.00 | CCC(CC(=O)Nc1cccc(-c2cc(-c3ccc(F)cc3O)nc(NC(=O)c3ccco3)c2C#N)c1)N(CC)CC.Cl (stereo not drawn) [Example 319, N-[3-cyano-4-(3-{[3-(diethylamino)pentanoyl]amino}phenyl)-6-(4-fluoro-2-hydroxyphenyl)pyridin-2-yl]-2-furamide hydrochloride] |
| – | ≥ 5.00 | N#Cc1c(-c2cccc(C(=O)NCCN)c2)cc(-c2ccc(F)cc2O)nc1NC(=O)c1ccco1 [Example 66, N-[4-(3-{[(2-aminoethyl)amino]carbonyl}phenyl)-3-cyano-6-(4-fluoro-2-hydroxyphenyl)pyridin-2-yl]-2-furamide hydrochloride] |
| – | ≥ 5.00 | N#Cc1c(-c2cccc(NC(=O)[C@@H]3CCCC[C@H]3N)c2)cc(-c2ccc(F)cc2O)nc1NC(=O)c1ccco1 (racemic) [Example 277, N-{4-[3-({[(1SR,2SR)-2-aminocyclohexyl]carbonyl}amino)phenyl]-3-cyano-6-(4-fluoro-2-hydroxyphenyl)pyridin-2-yl}-2-furamide hydrochloride] |
| – | ≥ 5.00 | N#Cc1c(-c2cccc(NC(=O)[C@@H](N)CN)c2)cc(-c2ccc(F)cc2O)nc1NC(=O)c1ccco1 [Example 302, N-[4-{3-[(3-amino-L-alanyl)amino]phenyl}-3-cyano-6-(4-fluoro-2-hydroxyphenyl)pyridin-2-yl]-2-furamide dihydrochloride] |
| – | ≥ 5.00 | N#Cc1c(-c2cccc(NC(=O)C[C@H]3CCCN3)c2)cc(-c2ccc(F)cc2O)nc1NC(=O)c1ccco1 [Example 314, N-[3-cyano-6-(4-fluoro-2-hydroxyphenyl)-4-(3-{[(2R)-pyrrolidin-2-ylacetyl]amino}phenyl)pyridin-2-yl]-2-furamide hydrochloride] |

Second part, the compound before the results:

| Compound | melting point [°C] | pIC50 [1] |
| --- | --- | --- |
| COc1ccc(C(=O)Nc2nc(-c3ccc(Cl)cc3O)cc(-c3cccc(NC(=O)CCN)c3)c2C#N)cc1.Cl [Example 252, N-[4-[3-(β-alanylamino)phenyl]-6-(4-chloro-2-hydroxyphenyl)-3-cyanopyridin-2-yl]-4-methoxybenzamide hydrochloride] | 193 to 197 | ≥ 5.00 |
| COc1ccccc1C(=O)Nc1nc(-c2ccc(F)cc2O)cc(-c2cccc(C(=O)NCCCn3ccnc3)c2)c1C#N.Cl [Example 245, N-{3-cyano-6-(4-fluoro-2-hydroxyphenyl)-4-[3-({[3-(1H-imidazol-1-yl)propyl]amino}carbonyl)phenyl]pyridin-2-yl}-2-methoxybenzamide hydrochloride] | 234 to 235 | ≥ 5.00 |
| N#Cc1c(-c2cccc(CNC(=N)N)c2)cc(-c2ccccc2O)nc1NC(=O)c1cccs1.O=C(O)C(F)(F)F [Example 45, N-{4-[3-({[amino(imino)methyl]amino}methyl)phenyl]-3-cyano-6-(2-hydroxyphenyl)pyridin-2-yl}thiophene-2-carboxamide trifluoroacetate] | 144 to 151 | ≥ 5.00 |
| Cl.N#Cc1c(-c2cccc(C(=O)NCCN)c2)cc(-c2ccc(Cl)cc2O)nc1NC(=O)c1nccs1 [Example 249, N-[4-(3-{[(2-aminoethyl)amino]carbonyl}phenyl)-6-(4-chloro-2-hydroxyphenyl)-3-cyanopyridin-2-yl]-1,3-thiazole-2-carboxamide hydrochloride] | 242 to 244 | ≥ 5.00 |
| Cl.N#Cc1c(-c2cccc(NC(=O)Cn3ccnc3)c2)cc(-c2ccc(Cl)cc2O)nc1NC(=O)c1ccco1 [Example 239, N-(6-(4-chloro-2-hydroxyphenyl)-3-cyano-4-{3-[(1H-imidazole-1-ylacetyl)amino]phenyl}pyridin-2-yl)-2-furamide hydrochloride] | 188 to 194 | ≥ 5.00 |
| N#Cc1c(-c2cccc(NC(=O)CCN)c2)cc(-c2ccc(Cl)cc2O)nc1NC(=O)c1ccoc1 [Example 254, N-[4-[3-(β-alanylamino)phenyl]-6-(4-chloro-2-hydroxyphenyl)-3-cyanopyridin-2-yl]-3-furamide hydrochloride] | – | ≥ 5.00 |
| N#Cc1c(-c2cccc(NC(=O)CCN)c2)cc(-c2ccc(F)cc2O)nc1NC(=O)c1cccs1 [Example 58, N-{4-[3-(β-alanylamino)phenyl]-3-cyano-6-(4-fluoro-2-hydroxyphenyl)pyridin-2-yl}thiophene-2-carboxamide hydrochloride] | – | ≥ 5.00 |
| COc1ccc(-c2cc(-c3cccc(NC(=O)CCN)c3)c(C#N)c(NC(=O)c3ccccc3)n2)c(O)c1 [Example 50, N-{4-[3-(β-alanylamino)phenyl]-3-cyano-6-(2-hydroxy-4-methoxyphenyl)pyridin-2-yl}benzamide trifluoroacetate] | – | ≥ 5.00 |
| N#Cc1c(-c2cccc(NC(=O)[C@H](N)Cc3cnc[nH]3)c2)cc(-c2ccc(Cl)cc2O)nc1NC(=O)c1ccco1 [Example 253, N-{3-[6-(4-chloro-2-hydroxyphenyl)-3-cyano-2-(2-furoylamino)pyridin-4-yl]phenyl}-D-histidinamide dihydrochloride] | – | ≥ 5.00 |
